{"source": "paper PMC10366102", "about": "“Dose escalation and expansion cohorts in patients with advanced breast cancer in a Phase I study of the CDK7-inhibitor samuraciclib” (Nature Communications, 2023)", "key": {"[1]": {"system": "phosphorylation of RNA Pol II, CDK1 and 2", "set-up": "method as in ref IB", "conditions": "in vitro and in vivo, tumour and normal cells; ref IB; cited from earlier work"}, "[2]": {"set-up": "method as in ref IB", "conditions": "ref IB; cited from earlier work"}, "rats": {"system": "rats", "set-up": "method as in ref IB", "conditions": "ref IB; cited from earlier work"}, "pCDK1/2/3": {"system": "pCDK1/2/3", "assay": "Immunohistochemistry H-score in paired tumor biopsies, pCDK1/2/3", "type": "in vivo, human", "experimental": "Per-protocol ctDNA samples were taken in Module 1B-1 at screening, C1D1, C2D1 and on D1 of alternating cycles from Cycle 3; in Module 2A at screening, C1D1 and at either C2D1 (240 mg) or C2D15 (360 mg) for mutational analysis[24],[33], (Supplementary Information). pPolII in lymphocytes and pPolII and pCDK1/2/3 in core needle tissue samples from patients recruited to the paired biopsy cohort were evaluated for on-target pharmacodynamic analyses. […]\npharmacodynamic effects in tumor tissue. […]\nvariability in H-score was observed between sections. […]\nH-scores for pre-dose and on-study biopsies and summary statistics for the observed H-score when stained for pCDK1/2/3 and pPolII are shown in Supplementary Table 11. Significance was calculated using Student’s one-tailed paired t-test, where the alternative hypothesis was that on-study samples had"}, "[3]": {"system": "patients with locally advanced and/or metastatic TNBC", "conditions": "both, human, in vivo", "experimental": "A single arm expansion was conducted to refine the safety, tolerability, PK, and pharmacodynamic profiles of samuraciclib monotherapy (360 mg OD) in male or female patients with advanced TNBC. Patients with histological, radiological or cytological confirmation of metastasis or locally advanced TNBC not considered to be appropriate for further standard treatment, who had received at least 1 line of systemic anti-cancer therapy, and measurable disease according to the RECIST V1.1, were eligible.\nPatients underwent regular safety monitoring and 8-week scans reported using RECIST V1.1.\nModule 1B-1 was a cohort expansion to explore the safety, tolerability, PK and pharmacodynamic effects, and anti-tumor activity of samuraciclib when given as monotherapy to patients with advanced TNBC; participants were treated at a starting dose of 360 mg once daily (OD). The initial sample size was to be a maximum of 50 participants, of whom approximately 30 participants were to receive the CT7001 dosing regimen which was declared as the RP2D.\nModule 1B-1 included an interim efficacy analysis when 15 patients in the RP2D Population were evaluable for efficacy assessments. The Module 1B-1 TNBC expansion phase was designed using a 2-stage design. The null hypothesis for the ORR was 10% and this was tested against an alternative […]\npatients were to be recruited, and the […]. Otherwise, recruitment was to continue until up to a total of 30 evaluable patients were recruited and if ≥6/30 (20%) responses were observed, across both stages of the study, the null hypothesis was to be rejected. At the timepoint for the interim efficacy assessment, the requirement of 2 or more participants achieving a Response Evaluation Criteria in Solid Tumors (RECIST) PR had not been met, with only 1 participant in the first 15 evaluable participants achieving a PR. However, 8 out of 15 evaluable participants achieved SD, with 4 participants being treated for at least 16 weeks, which in this aggressive tumor type is of significant clinical note. Following discussion with the SRC it was agreed that further evaluable participants would be recruited into this expansion study.\nThe schedule of assessments for this study is provided in Supplementary Table 3. […]\nDuration of response (DoR) was defined as the time from documentation of tumor response to disease progression. Progression-free survival (PFS) was […]\ncause, whichever occurred first. Efficacy results were summarized descriptively and Kaplan -Meier plots provided where appropriate. […]\nreceived at least 1 dose of samuraciclib). These were summarized by Medical Dictionary for Regulatory […]\nadverse events (SAEs) were analyzed and reported separately. Details of any deaths were listed. All […]\nwere listed individually by patient and summarized descriptively. For urinalysis parameters, any […]\npositive. Abnormal physical examina tion findings were listed."}}, "data": [{"compound": "CC(C)c1cnn2c(NCc3ccccc3)cc(NC[C@H]3CCNC[C@@H]3O)nc12", "note": "[samuraciclib, Samuraciclib]", "values": [{"measurement": "Phosphorylation of RNA Pol II, CDK1 and 2", "setting": "[1]", "result": "inhibits the phosphorylation"}, {"measurement": "Solubility", "setting": "[2]", "result": "pH-dependent solubility"}, {"measurement": "Effects on CNS (Irwin) and respiratory systems", "setting": "rats", "result": "No significant effects"}, {"measurement": "pCDK1/2/3 H-Score, On study, average", "setting": "pCDK1/2/3; Average 240mg OD patients, pre-dose 169", "result": 102}, {"measurement": "pCDK1/2/3 H-Score, On study, average", "setting": "pCDK1/2/3; Average 360mg OD patients, pre-dose 119", "result": 118}, {"measurement": "pCDK1/2/3 H-Score, On study, average", "setting": "pCDK1/2/3; Average all patients, pre-dose 144", "result": 110}, {"measurement": "pCDK1/2/3 H-Score, On study", "setting": "pCDK1/2/3; HR+ breast cancer, breast biopsy, 360 mg OD, pre-dose 178", "result": 112}, {"measurement": "pCDK1/2/3 H-Score, On study", "setting": "pCDK1/2/3; HR+ breast cancer, liver biopsy, 240 mg OD, pre-dose 125", "result": 90}, {"measurement": "pCDK1/2/3 H-Score, On study", "setting": "pCDK1/2/3; HR+ breast cancer, liver biopsy, 240 mg OD, pre-dose 234", "result": 151}, {"measurement": "pCDK1/2/3 H-Score, On study", "setting": "pCDK1/2/3; HR+ breast cancer, liver biopsy, 360 mg OD, pre-dose 89", "result": 128}, {"measurement": "pCDK1/2/3 H-Score, On study", "setting": "pCDK1/2/3; HR+ breast cancer, liver biopsy, 360 mg OD, pre-dose 91", "result": 113}, {"measurement": "pCDK1/2/3 H-Score, On study", "setting": "pCDK1/2/3; Rhabdomyosarcoma, axilla biopsy, 240 mg OD, pre-dose 148", "result": 64}, {"measurement": "Levels of pCDK1/2/3 in tumors", "setting": "pCDK1/2/3; paired biopsy cohort", "result": "showed a reduction, although this did not reach statistical significance"}, {"measurement": "ALT increased; All AEs", "setting": "[3]", "result": "0 patients (%)"}, {"measurement": "ALT increased; Grade ≥3", "setting": "[3]", "result": "0 patients (%)"}, {"measurement": "AST increased; All AEs", "setting": "[3]", "result": "0 patients (%)"}, {"measurement": "AST increased; Grade ≥3", "setting": "[3]", "result": "0 patients (%)"}, {"measurement": "Abdominal pain upper; All AEs", "setting": "[3]", "result": "0 patients (%)"}, {"measurement": "Abdominal pain upper; Grade ≥3", "setting": "[3]", "result": "0 patients (%)"}, {"measurement": "Abdominal pain; All AEs", "setting": "[3]", "result": "6 (26.1) patients (%)"}, {"measurement": "Abdominal pain; Grade ≥3", "setting": "[3]", "result": "0 patients (%)"}, {"measurement": "Anemia; All AEs", "setting": "[3]", "result": "0 patients (%)"}, {"measurement": "Anemia; Grade ≥3", "setting": "[3]", "result": "1 (4.3) patients (%)"}, {"measurement": "Any treatment-emergent AE; All AEs", "setting": "[3]", "result": "23 (100.0) patients (%)"}, {"measurement": "Any treatment-emergent AE; Grade ≥3", "setting": "[3]", "result": "10 (43.5) patients (%)"}, {"measurement": "Back pain; All AEs", "setting": "[3]", "result": "0 patients (%)"}, {"measurement": "Back pain; Grade ≥3", "setting": "[3]", "result": "0 patients (%)"}, {"measurement": "Constipation; All AEs", "setting": "[3]", "result": "7 (30.4) patients (%)"}, {"measurement": "Constipation; Grade ≥3", "setting": "[3]", "result": "0 patients (%)"}, {"measurement": "Cough; All AEs", "setting": "[3]", "result": "3 (13.0) patients (%)"}, {"measurement": "Cough; Grade ≥3", "setting": "[3]", "result": "0 patients (%)"}, {"measurement": "Decreased appetite; All AEs", "setting": "[3]", "result": "3 (13.0) patients (%)"}, {"measurement": "Decreased appetite; Grade ≥3", "setting": "[3]", "result": "0 patients (%)"}, {"measurement": "Diarrhea; All AEs", "setting": "[3]", "result": "21 (91.3) patients (%)"}, {"measurement": "Diarrhea; Grade ≥3", "setting": "[3]", "result": "3 (13.0) patients (%)"}, {"measurement": "Discontinued samuraciclib due to related AEs", "setting": "[3]", "result": 4.3, "unit": "%"}, {"measurement": "Dizziness; All AEs", "setting": "[3]", "result": "0 patients (%)"}, {"measurement": "Dizziness; Grade ≥3", "setting": "[3]", "result": "0 patients (%)"}, {"measurement": "Dysgeusia; All AEs", "setting": "[3]", "result": "0 patients (%)"}, {"measurement": "Dysgeusia; Grade ≥3", "setting": "[3]", "result": "0 patients (%)"}, {"measurement": "Dysphagia; All AEs", "setting": "[3]", "result": "0 patients (%)"}, {"measurement": "Dysphagia; Grade ≥3", "setting": "[3]", "result": "0 patients (%)"}, {"measurement": "Dyspnea; All AEs", "setting": "[3]", "result": "0 patients (%)"}, {"measurement": "Dyspnea; Grade ≥3", "setting": "[3]", "result": "0 patients (%)"}, {"measurement": "Fatigue; All AEs", "setting": "[3]", "result": "11 (47.8) patients (%)"}, {"measurement": "Fatigue; Grade ≥3", "setting": "[3]", "result": "1 (4.3) patients (%)"}, {"measurement": "Headache; All AEs", "setting": "[3]", "result": "0 patients (%)"}, {"measurement": "Headache; Grade ≥3", "setting": "[3]", "result": "0 patients (%)"}, {"measurement": "Hyperglycemia; All AEs", "setting": "[3]", "result": "0 patients (%)"}, {"measurement": "Hyperglycemia; Grade ≥3", "setting": "[3]", "result": "0 patients (%)"}, {"measurement": "Hypocalcaemia; All AEs", "setting": "[3]", "result": "0 patients (%)"}, {"measurement": "Hypocalcaemia; Grade ≥3", "setting": "[3]", "result": "0 patients (%)"}, {"measurement": "Hypokalaemia; All AEs", "setting": "[3]", "result": "0 patients (%)"}, {"measurement": "Hypokalaemia; Grade ≥3", "setting": "[3]", "result": "0 patients (%)"}, {"measurement": "Nausea; All AEs", "setting": "[3]", "result": "22 (95.7) patients (%)"}, {"measurement": "Nausea; Grade ≥3", "setting": "[3]", "result": "1 (4.3) patients (%)"}, {"measurement": "Rash; All AEs", "setting": "[3]", "result": "0 patients (%)"}, {"measurement": "Rash; Grade ≥3", "setting": "[3]", "result": "0 patients (%)"}, {"measurement": "Stomatitis; All AEs", "setting": "[3]", "result": "3 (13.0) patients (%)"}, {"measurement": "Stomatitis; Grade ≥3", "setting": "[3]", "result": "1 (4.3) patients (%)"}, {"measurement": "Taste disorder; All AEs", "setting": "[3]", "result": "0 patients (%)"}, {"measurement": "Taste disorder; Grade ≥3", "setting": "[3]", "result": "0 patients (%)"}, {"measurement": "Upper respiratory tract infection; All AEs", "setting": "[3]", "result": "3 (13.0) patients (%)"}, {"measurement": "Upper respiratory tract infection; Grade ≥3", "setting": "[3]", "result": "0 patients (%)"}, {"measurement": "Urinary tract infection; All AEs", "setting": "[3]", "result": "0 patients (%)"}, {"measurement": "Urinary tract infection; Grade ≥3", "setting": "[3]", "result": "0 patients (%)"}, {"measurement": "Vomiting; All AEs", "setting": "[3]", "result": "14 (60.9) patients (%)"}, {"measurement": "Vomiting; Grade ≥3", "setting": "[3]", "result": "2 (8.7) patients (%)"}, {"measurement": "Weight decreased; All AEs", "setting": "[3]", "result": "0 patients (%)"}, {"measurement": "Weight decreased; Grade ≥3", "setting": "[3]", "result": "0 patients (%)"}]}]}
